Data from patent US5597820A, “1, 4-benzoxazine derivative and pharmaceutical compositions containing the same” (Kanebo, Ltd., priority 1994, dated 1997).

Tests used:
Na^+ /H^+ exchange = biological target: T1, Na^+ /H^+ exchange (Rattus norvegicus, UniProt P26431); experiment: Na^+ /H^+ Exchange inhibitory activity (sodium propionate-induced swelling of platelets); format: cell-based, rat (male Wistar rats); settings: rat platelet-rich plasma, 37° C.
T1 construct: A supernatant was separated to prepare platelet-rich plasma; endogenous in cells; host or cells: platelets in platelet-rich plasma from male Wistar rats (abdominal aorta blood)
Experimental: The compounds of the present invention were assessed for their Na^+ /H^+ exchange inhibitory activity based on an activity to inhibit sodium propionate-induced swelling of platelets in accordance with the method of Rosskoph et al. [Journal of Hypertension, 9, 231-238 (1991)].
First, platelet-rich plasma was prepared in accordance with the method of Mammen et al. [Diabetes Research and Clinical Practice, 9(3), 265-272 (1990)]. Briefly, male Wistar rats weighing 190 to 420 g were abdominally operated under anesthesia with ether and blood was taken from the abdominal aorta. For inhibiting blood coagulation, ACD solution (a mixture of 65 mM citric acid, 85 mM sodium citrate, 11 mM dextrose) was added to blood and this treated blood was centrifuged at 90× g for 10 minutes. A supernatant was separated to prepare platelet-rich plasma.
Then, a solution of the test compounds in dimethylsulfoxide was added to 140 mM sodium propionate buffer solution. To this mixture was added the platelet-rich plasma prepared above and a decrease in optical density was recorded with the passage of time at 37° C. using a platelet aggregometer (turbidimeter) and a X-Y recorder to calculate a decrease rate in optical density after mixing with platelet-rich plasma [decrease rate in optical density in the presence of the test compounds (D)]. On the other hand, the solvent dimethylsulfoxide alone was used instead of the solution of the test compounds and the decrease in optical density was recorded in the similar manner to calculate a decrease rate in optical density [control (C)]. A swelling inhibitory rate (%) was calculated using the following formula:
Swelling inhibitory rate (%)=(1-D/C)×100

reperfusion arrhythmia = experiment: Inhibitory activity against reperfusion arrhythmia (rat acute myocardial infarction model); format: in vivo, rat (male Sprague-Dawley rats); settings: femoral vein
Experimental: Using a rat acute myocardial infarction model, the compounds of the present invention were assessed for their inhibitory activity against reperfusion arrhythmia in accordance with the method of […] al. [European Journal of Pharmacology, 194, 7-10 (1991)]. Male Sprague-Dawley rats (weighing 310 to 490 g) were anesthetized by intraperitoneal administration of sodium pentobarbital (50 mg/kg). Under anesthesia, the rats were cannulated via trachea and the cannula was linked to a respirator. An electrocardiogram (the lead II) was obtained from electrodes attached to the limbs using bioelectric amplifier while maintaining the body temperature at 37° C. The chest of the rats were opened at the left fifth intercostal space and the pericardium was cut open to reveal the heart. Then a solution of the test compound in a mixed solvent of polyethylene glycol 400, ethanol and a physiological saline [3:3:14 (v/v)] was administered into the femoral vein. Ten minutes after the administration of the compound, the origin of the left coronary artery was occluded. After occlusion for 5 minutes, reperfusion was carried out for 10 minutes and a duration (second) of a ventricular fibrillation after reperfusion was measured from the electrocardiogram (mean±standard error, n=3 to 10). The ventricular fibrillation was assessed in accordance with the guideline of The Lambeth Convention [Cardiovascular Research, 22, 447-455 (1988)]. On the other hand, the mixed solvent of polyethylene glycol 400, ethanol and a physiological saline [3:3:14 (v/v)] alone was used as a control and a duration (second) of the ventricular fibrillation was measured in a similar manner. Using male Sprague-Dawley rats weighing 310 to 440 g, the duration (second) of the ventricular fibrillation was measured in the same manner as in Test 1 (n=4 to 10). Using male Sprague-Dawley rats weighing 310 to 400 g, the duration (second) of the ventricular fibrillation was measured in the same manner as in Test 1 (n=4 to 6).

[1] = test system: myocardial infarction lesion; experiment: Activity to reduce myocardial infarction lesion (rat acute myocardial infarction model); format: in vivo, rat (male Sprague-Dawley rats); settings: femoral vein
Experimental: Using a rat acute myocardial infarction model, the compounds of the present invention were assessed for their activity to reduce myocardial infarction lesion in accordance with the method of Petty et al. [European Journal of Pharmacology, 192, 383-388 (1991)]. Male Sprague-Dawley rats (weighing 320 to 430 g) were anesthetized by intraperitoneal administration of sodium pentobarbital (50 mg/kg). Under anesthesia, the rats were cannulated via trachea and the cannula was linked to a respirator and then the body temperature was maintained at 37° C. The chest of the rats were opened at the left fifth intercostal space and the pericardium was cut open to reveal the heart. Then a solution of the test compound in a mixed solvent of polyethylene glycol 400, ethanol and a physiological saline [3:3:14 (v/v)] was administered into the femoral vein. Ten minutes after the administration of the compound, the origin of the left coronary artery was occluded. After occlusion for 30 minutes, reperfusion was carried out for 2 hours. After reperfusion, the heart was removed and the origin of the left coronary artery was ligated again. The heart was cannulated via the aorta and a 0.025% solution of Evans blue was perfused using a syringe pump to distinguish an ischemic region (not stained with Evans blue) and a non-ischemic region (stained with Evans blue). The ischemic region was incubated in a 0.1% triphenyltetrazolium chloride (TTC) solution at 37° C. for 30 minutes to distinguish a TTC-stained region and a non-stained region (infarction region).

[2] = Test 2 (Table 4), 0.1 mg/kg, control 146.1 ± 5.9, **: p < 0.01
[3] = Test 2 (Table 7), 1 mg/kg, control 45.2 ± 4.1, **: p < 0.01
[4] = Test 3 (Table 5), 0.1 mg/kg, control 171.0 ± 5.8, Example 19 *: p < 0.05, Example 21 **: p < 0.01

T1 sequence (P26431 whole entry): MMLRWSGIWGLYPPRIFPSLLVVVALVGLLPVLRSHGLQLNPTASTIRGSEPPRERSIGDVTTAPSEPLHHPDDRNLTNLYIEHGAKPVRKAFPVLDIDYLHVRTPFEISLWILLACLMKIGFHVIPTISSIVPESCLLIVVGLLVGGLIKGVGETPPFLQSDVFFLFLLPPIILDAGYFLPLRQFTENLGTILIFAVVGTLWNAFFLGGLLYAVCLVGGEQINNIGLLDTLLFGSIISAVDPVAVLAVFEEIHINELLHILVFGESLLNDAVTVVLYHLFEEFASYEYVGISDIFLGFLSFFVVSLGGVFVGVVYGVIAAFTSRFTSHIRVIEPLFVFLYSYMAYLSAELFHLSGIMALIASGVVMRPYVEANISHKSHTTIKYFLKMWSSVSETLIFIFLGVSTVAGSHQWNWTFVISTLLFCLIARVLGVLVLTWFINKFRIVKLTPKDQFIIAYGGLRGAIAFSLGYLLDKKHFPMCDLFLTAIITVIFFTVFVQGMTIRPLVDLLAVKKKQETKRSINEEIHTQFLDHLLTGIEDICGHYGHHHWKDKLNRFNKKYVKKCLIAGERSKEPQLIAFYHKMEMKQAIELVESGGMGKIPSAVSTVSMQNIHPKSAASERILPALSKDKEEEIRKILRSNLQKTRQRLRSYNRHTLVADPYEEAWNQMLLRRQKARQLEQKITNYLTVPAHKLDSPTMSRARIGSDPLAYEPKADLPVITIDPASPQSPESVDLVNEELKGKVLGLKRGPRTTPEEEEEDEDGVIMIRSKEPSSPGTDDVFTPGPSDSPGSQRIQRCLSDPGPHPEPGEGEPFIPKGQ

| SMILES | IC50 (Na^+ /H^+ exchange) [µM] | further results |
| --- | --- | --- |
| N=C(N)NC(=O)c1nc(Cl)c(N)nc1N [Amiloride, amiloride, reference compound] | 13 | – |
| CC(C)N1C(=O)C(C)(C)Oc2cc(C(=O)N=C(N)N)ccc21 [Example 1, N-amidino-2,2-dimethyl-4-(2-propyl)-3-oxo-3,4-dihydro-2H-1,4-benzoxazine-7-carboxamide] | 0.2 | – |
| CC1Oc2cc(C(=O)NC(=N)N)ccc2N(C(C)C)C1=O (centres unmarked) [Example 2, N-amidino-2-methyl-4-(2-propyl)-3-oxo-3,4-dihydro-2H-1,4-benzoxazine-7-carboxamide] | 0.094 | Duration (second) of ventricular fibrillation (mean ± standard error) (reperfusion arrhythmia; Test 1 (Table 3), 0.01 mg/kg, control 92.6 ± 20.2): 118.9 ± 59.4 s; Duration (second) of ventricular fibrillation (mean ± standard error) (reperfusion arrhythmia; Test 1 (Table 3), 0.1 mg/kg, control 92.6 ± 20.2, *: p < 0.05): 19.1 ± 12.4 s; Duration (second) of ventricular fibrillation (mean ± standard error) (reperfusion arrhythmia; Test 1 (Table 3), 1 mg/kg, control 92.6 ± 20.2, *: p < 0.05): 0.0 ± 0.0 s; Infarction region/ischemic region (%) (mean ± standard error) ([1]; Test 1 (Table 6), 0.01 mg/kg, control 51.4 ± 2.4): 41.7 ± 10.3%; Infarction region/ischemic region (%) (mean ± standard error) ([1]; Test 1 (Table 6), 0.1 mg/kg, control 51.4 ± 2.4): 35.6 ± 3.5%; Infarction region/ischemic region (%) (mean ± standard error) ([1]; Test 1 (Table 6), 1 mg/kg, control 51.4 ± 2.4, **: p < 0.01): 7.2 ± 4.9% |
| CC(C)N1C(=O)COc2cc(C(=O)NC(=N)N)ccc21 [Example 3, N-amidino-4-(2-propyl)-3-oxo-3,4-dihydro-2H-1,4-benzoxazine-7-carboxamide] | 0.17 | – |
| CCN1C(=O)C(C)Oc2cc(C(=O)NC(=N)N)ccc21 (centres unmarked) [Example 4, N-amidino-4-ethyl-2-methyl-3-oxo-3,4-dihydro-2H-1,4-benzoxazine-7-carboxamide] | 0.16 | – |
| CC(C)N1C(=O)C(C)(C)Oc2ccc(C(=O)NC(=N)N)cc21.Cl [Example 5, N-amidino-2,2-dimethyl-4-(2-propyl)-3-oxo-3,4-dihydro-2H-1,4-benzoxazine-6-carboxamide hydrochloride] | 0.12 | Duration (second) of ventricular fibrillation (mean ± standard error) (reperfusion arrhythmia; [2]): 80.2 ± 27.8 s |
| CCN1C(=O)C(C)Oc2ccc(C(=O)NC(=N)N)cc21 (centres unmarked) [Example 6, N-amidino-4-ethyl-2-methyl-3-oxo-3,4-dihydro-2H-1,4-benzoxazine-6-carboxamide] | 0.29 | – |
| CCN1C(=O)C(C)(C)Oc2ccc(C(=O)NC(=N)N)cc21 [Example 7, N-amidino-2,2-dimethyl-4-ethyl-3-oxo-3,4-dihydro-2H-1,4-benzoxazine-6-carboxamide] | 0.38 | – |
| CC1Oc2cc(C(=O)NC(=N)N)ccc2NC1=O (centres unmarked) [Example 8, N-amidino-2-methyl-3-oxo-3,4-dihydro-2H-1,4-benzoxazine-7-carboxamide] | 0.81 | – |
| CCC1Oc2cc(C(=O)NC(=N)N)ccc2N(C(C)C)C1=O (centres unmarked) [Example 9, N-amidino-2-ethyl-4-(2-propyl)-3-oxo-3,4-dihydro-2H-1,4-benzoxazine-7-carboxamide] | 0.034 | – |
| CC1Oc2cc(C(=O)NC(=N)N)ccc2N(C2CCCC2)C1=O (centres unmarked) [Example 10, N-amidino-4-cyclopentyl-2-methyl-3-oxo-3,4-dihydro-2H-1,4-benzoxazine-7-carboxamide] | 0.062 | – |
| CCN1C(=O)COc2cc(C(=O)NC(=N)N)ccc21 [Example 12, N-amidino-4-ethyl-3-oxo-3,4-dihydro-2H-1,4-benzoxazine-7-carboxamide] | 0.36 | – |
| CCC1Oc2cc(C(=O)NC(=N)N)ccc2N(CC)C1=O (centres unmarked) [Example 13, N-amidino-2,4-diethyl-3-oxo-3,4-dihydro-2H-1,4-benzoxazine-7-carboxamide] | 0.083 | – |
| CC[C@@H]1Oc2cc(C(=O)NC(=N)N)ccc2N(C(C)C)C1=O [Example 14, (S)-N-Amidino-2-ethyl-4-(2-propyl)-3-oxo-3,4-dihydro-2H-1,4-benzoxazine-7-carboxamide] | 0.073 | – |
| CC[C@H]1Oc2cc(C(=O)NC(=N)N)ccc2N(C(C)C)C1=O [Example 15, (R)-N-Amidino-2-ethyl-4-(2-propyl)-3-oxo-3,4-dihydro-2H-1,4-benzoxazine-7-carboxamide] | 0.036 | – |
| CC[C@@H]1Oc2cc(C(=O)NC(=N)N)ccc2N(CC)C1=O [Example 16, (S)-N-amidino-2,4-diethyl-3-oxo-3,4-dihydro-2H-1,4-benzoxazine-7-carboxamide] | 0.045 | – |
| CC[C@H]1Oc2cc(C(=O)NC(=N)N)ccc2N(CC)C1=O [Example 17, (R)-N-amidino-2,4-diethyl-3-oxo-3,4-dihydro-2H-1,4-benzoxazine-7-carboxamide] | 0.071 | – |
| CC[C@H]1Oc2cc(C(=O)NC(=N)N)ccc2N(C(C)C)C1=O.Cl [Example 18, (R)-N-Amidino-2-ethyl-4-(2-propyl)-3-oxo-3,4-dihydro-2H-1,4-benzoxazine-7-carboxamide hydrochloride] | 0.038 | Duration (second) of ventricular fibrillation (mean ± standard error) (reperfusion arrhythmia; Test 2 (Table 4), 0.01 mg/kg, control 146.1 ± 5.9): 75.5 ± 29.2 s; Duration (second) of ventricular fibrillation (mean ± standard error) (reperfusion arrhythmia; [2]): 31.4 ± 20.6 s; Duration (second) of ventricular fibrillation (mean ± standard error) (reperfusion arrhythmia; Test 2 (Table 4), 1 mg/kg, control 146.1 ± 5.9, **: p < 0.01): 0.0 ± 0.0 s; Infarction region/ischemic region (%) (mean ± standard error) [1, 3]: 21.7 ± 5.5% |
| CC[C@H]1Oc2cc(C(=O)NC(=N)N)ccc2N(C(C)C)C1=O.CS(=O)(=O)O [Example 19, (R)-N-Amidino-2-ethyl-4-(2-propyl)-3-oxo-3,4-dihydro-2H-1,4-benzoxazine-7-carboxamide methanesulfonate] | 0.044 | Duration (second) of ventricular fibrillation (mean ± standard error) (reperfusion arrhythmia; Test 3 (Table 5), 0.01 mg/kg, control 171.0 ± 5.8): 116.8 ± 40.2 s; Duration (second) of ventricular fibrillation (mean ± standard error) (reperfusion arrhythmia; [4]): 36.5 ± 32.2 s; Duration (second) of ventricular fibrillation (mean ± standard error) (reperfusion arrhythmia; Test 3 (Table 5), 1 mg/kg, control 171.0 ± 5.8, *: p < 0.05): 0.0 ± 0.0 s; Infarction region/ischemic region (%) (mean ± standard error) [1, 3]: 20.7 ± 5.2% |
| CC[C@@H]1Oc2cc(C(=O)NC(=N)N)ccc2N(CC)C1=O.Cl [Example 20, (S)-N-amidino-2,4-diethyl-3-oxo-3,4-dihydro-2H-1,4-benzoxazine-7-carboxamide hydrochloride] | 0.049 | Duration (second) of ventricular fibrillation (mean ± standard error) (reperfusion arrhythmia; [2]): 27.2 ± 27.2 s |
| CC[C@@H]1Oc2cc(C(=O)NC(=N)N)ccc2N(CC)C1=O.CS(=O)(=O)O [Example 21, (S)-N-amidino-2,4-diethyl-3-oxo-3,4-dihydro-2H-1,4-benzoxazine-7-carboxamide methanesulfonate] | 0.089 | Duration (second) of ventricular fibrillation (mean ± standard error) (reperfusion arrhythmia; [4]): 69.0 ± 31.1 s |
